Laboratory results published in patent US20100144712A1 (priority 2007, published 2010).
Converted amounts (≈) assume the structure as drawn. Read-outs that look alike come from different tables or passages of the source.

Tests used:
Format in all cases: cell-based
[1] = system: Aspergillus fumigatus (ATCC 16424); assay: In vitro antifungal activity (MIC80), Aspergillus fumigatus ATCC 16424; conditions: Aspergillus fumigatus, read-out: Minimal inhibitory concentration (MIC80)
Experimental: (§1) In vitro antifungal activities of the inventive antifungal compounds were evaluated using test strains including Candida albican (ATCC 90873, 204276, 62342, 64124, 64550, 96901, MYA-573, MYA-574, MYA-575, MYA-576, MYA-1003) and Aspergillus fumigatus (ATCC 16424). Test samples and positive control samples were prepared by dissolving the inventive compounds and comparative compounds, i.e., amphotericin B, fluconazole and itraconazole, in DMSO, respectively, and each successively diluted with medium to obtain test and positive control solutions having test compound concentrations of 0.125 μg/ml to a maximum concentration not generating turbidity. Minimal inhibitory concentration (MIC80) of each compound was determined as the lowest concentration of the test compounds required to reduce growth by 80% relative to a control strain not treated.
1) Test strain: Candida albican ATCC 90873, 204276, 62342, 64124, 64550, 96901, MYA-573, MYA-574, MYA-575, MYA-576, MYA-1003, and Aspergillus fumigatus ATCC 16424 were commercially obtained from The American Type Culture Collection (ATCC) and subcultured in CHEMON Co. Ltd. (amphotericin B was commercially purchased from Sigma, and fluconazole and itraconazole were prepared according to methods described in British Patent No. 2,099,818; and U.S. Pat. No. 4,267,179, respectively).
2) Medium and culture condition: Candida albican was cultured in Sabourad Dextrose Agar, YM Agar or Potato Dextrose Agar according to ATCC information at a temperature of 37° C., 35° C., 30° C. or 25° C. Aspergillus fumigatus was cultured in Malt Extract Agar or Potato Dextrose Agar at a temperature ranging from 24 to 27° C.
(§2) 3) Preparation of test samples: the inventive compounds and comparative compounds were each diluted with DMSO to obtain 1 to 2 ml of a test sample in a concentration of 100-folds of the determining maximum concentration (256 μg/ml).
(§3) The test samples were each successively diluted with RPMI 1640 to obtain test solutions having concentrations of […] in a 12×75 mm sterilized disposable culture tube. The final concentration of DMSO was adjusted to […] (v/v).
5) Preparation of strain solution and inoculation
(§4) Candida albican strains were each subcultured in Sabourad Dextrose Agar, YM Agar or Potato Dextrose Agar medium at 35° C. for 2˜3 days. In the case of yeasts, a single colony was taken from prominent colonies and suspended in 0.85% sterile physiological saline solution and the turbidity of the suspension was adjusted to 80˜82% at 530 nm, and then diluted 50-fold with RPMI 1640 medium to 1.0×10^3˜5.0×10^3 CFU/ml. The turbidity of fungi was adjusted to 80˜82% and the suspension was diluted 50-fold to […]. Aspergillus fumigatus strains were subcultured in Malt Extract Agar for 7˜10 days, and a single colony was taken from prominent colonies and suspended in 0.85% sterile physiological saline solution and the suspension was adjusted to 0.108 at 530 nm, and then diluted 1000-fold with RPMI 1640 medium to 0.4×10^2˜5×10^4 CFU/ml. The turbidity of fungi was adjusted to 80˜82% and the suspension was diluted 50-fold to 0.4102˜0.5104 CFU/ml.
(§5) The strain solutions thus obtained were each seeded into a sterilized 96-well microplate, 0.1 ml of each test solution were added thereto, and […] of alamarblue was treated to each well (Biosource, #DAL1100). This procedure was repeated 2 times.
(§6) Minimal inhibitory concentration (MIC80) of each compound was determined as the lowest concentration of the test compounds required to reduce growth by 80% relative to a control strain not treated.
(§7) MIC80 of each of the compounds of which antifungal activities can be confirmed by Table 2 was determined using other test strains, i.e., Aspergillus fumigatus ATCC 16424 and MYA-1163, Aspergillus terreus ATCC 28301, Aspergillus flavus ATCC MYA-1004, and Aspergillus niger ATCC 9142.

[2] = system: Candida albican ATCC 90873; assay: In vitro antifungal activity (MIC80), Candida albican ATCC 90873; conditions: Candida, ATCC90873; Table 2, ATCC 90873; read-out: Minimal inhibitory concentration (MIC80)
Outline: (§8)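 Broth microdilution in RPMI 1640 with 2% (v/v) final DMSO, test solutions 0.25 to 256 […]. Inoculum of 1.0×10^3–5.0×10^3 CFU/ml came from colonies grown 2–3 days at 35 °C, and alamarBlue was added. MIC80 is the lowest concentration reducing growth by 80% versus untreated control.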

[3] = system: Candida albican ATCC 96901; assay: In vitro antifungal activity (MIC80), Candida albican ATCC 96901; conditions: Candida, ATCC96901; Table 2, ATCC 96901; read-out: Minimal inhibitory concentration (MIC80)
Outline: as §8

[4] = system: Candida albican ATCC MYA-1003; assay: In vitro antifungal activity (MIC80), Candida albican ATCC MYA-1003; conditions: Candida; Table 2, MYA 1003; read-out: Minimal inhibitory concentration (MIC80)
Outline: as §8

[5] = system: Candida albican ATCC 62342; assay: In vitro antifungal activity (MIC80), Candida albican ATCC 62342; conditions: Candida, ATCC62342; Table 2, 62342; read-out: Minimal inhibitory concentration (MIC80)
Outline: as §8

[6] = system: Candida albican ATCC 64124; assay: In vitro antifungal activity (MIC80), Candida albican ATCC 64124; conditions: Candida, ATCC64124; Table 2, 64124; read-out: Minimal inhibitory concentration (MIC80)
Outline: as §8

[7] = system: Candida albican ATCC 64550; assay: In vitro antifungal activity (MIC80), Candida albican ATCC 64550; conditions: Candida, ATCC64550; Table 2, 64550; read-out: Minimal inhibitory concentration (MIC80)
Outline: as §8

[8] = system: Candida albican ATCC MYA-573; assay: In vitro antifungal activity (MIC80), Candida albican ATCC MYA-573; conditions: Candida; Table 2, MYA 573; read-out: Minimal inhibitory concentration (MIC80)
Outline: as §8

[9] = system: Candida albican ATCC MYA-574; assay: In vitro antifungal activity (MIC80), Candida albican ATCC MYA-574; conditions: Candida; Table 2, MYA 574; read-out: Minimal inhibitory concentration (MIC80)
Outline: as §8

[10] = system: Candida albican ATCC MYA-575; assay: In vitro antifungal activity (MIC80), Candida albican ATCC MYA-575; conditions: Candida; Table 2, MYA 575; read-out: Minimal inhibitory concentration (MIC80)
Outline: as §8

[11] = system: Candida albican ATCC MYA-576; assay: In vitro antifungal activity (MIC80), Candida albican ATCC MYA-576; conditions: Candida; Table 2, MYA 576; read-out: Minimal inhibitory concentration (MIC80)
Outline: as §8

[12] = system: Aspergillus fumigatus MYA-1163; assay: In vitro antifungal activity (MIC80), Aspergillus fumigatus MYA-1163; conditions: Aspergillus fumigatus, MYA1163; Table 3, MYA-1163; read-out: Minimal inhibitory concentration (MIC80)
Experimental: as §1, §2, §3, §4, §5, §6, §7

[13] = system: Aspergillus flavus ATCC MYA-1004; assay: In vitro antifungal activity (MIC80), Aspergillus flavus ATCC MYA-1004; conditions: Aspergillus flavus; Table 3, MYA-1004; read-out: Minimal inhibitory concentration (MIC80)
Experimental: as §1, §2, §3, §4, §5, §6, §7

[14] = system: Aspergillus terreus ATCC 28301; assay: In vitro antifungal activity (MIC80), Aspergillus terreus ATCC 28301; conditions: Aspergillus terreus, ATCC28301; Table 3, ATCC 28301; read-out: Minimal inhibitory concentration (MIC80)
Experimental: as §1, §2, §3, §4, §5, §6, §7

[15] = system: Aspergillus niger ATCC 9142; assay: In vitro antifungal activity (MIC80), Aspergillus niger ATCC 9142; conditions: Aspergillus niger, ATCC9142; Table 3, ATCC 9142; read-out: Minimal inhibitory concentration (MIC80)
Experimental: as §1, §2, §3, §4, §5, §6, §7

Row | SMILES | MIC80 ([1]; ATCC16424, Table 2, ATCC 16424) | MIC80 ([1]; ATCC16424, Table 3, ATCC 16424) | MIC80 [2] | MIC80 [3] | MIC80 [4] | MIC80 [5] | MIC80 [6] | MIC80 [7] | MIC80 [8] | MIC80 [9] | MIC80 [10] | MIC80 [11] | MIC80 [12] | MIC80 [13] | MIC80 [14] | MIC80 [15]
1 | C[C@@H](N1CCN(c2nc3ccc(Cl)cc3o2)CC1)[C@](O)(Cn1cncn1)c1ccc(F)cc1F [Example 6, (2R,3R)-3-(4-(6-chlorobenzooxazol-2-yl)piperazin-1-yl)-2-(2,4-difluorophenyl)-1-(1H-1,2,4-triazol-1-yl)butan-2-ol] | 0.125 µg/mL (≈ 0.256 µM) | 0.125 µg/mL (≈ 0.256 µM) | 0.125 µg/mL (≈ 0.256 µM) | 2 µg/mL (≈ 4.09 µM) | > 128 µg/mL | 0.25 µg/mL (≈ 0.511 µM) | 4 µg/mL (≈ 8.18 µM) | 0.5 µg/mL (≈ 1.02 µM) | 0.25 µg/mL (≈ 0.511 µM) | 0.25 µg/mL (≈ 0.511 µM) | 0.125 µg/mL (≈ 0.256 µM) | 0.125 µg/mL (≈ 0.256 µM) | 0.25 µg/mL (≈ 0.511 µM) | 0.25 µg/mL (≈ 0.511 µM) | 0.5 µg/mL (≈ 1.02 µM) | 1 µg/mL (≈ 2.05 µM)
2 | C[C@@H](N1CCN(c2nc3ccc(NCCN4CCOCC4)cc3s2)CC1)[C@](O)(Cn1cncn1)c1ccc(F)cc1F [Example 12, (2R,3R)-3-(4-(6-(2-morpholinoethylamino)benzothiazol-2-yl)piperazin-1-yl)-2-(2,4-difluorophenyl)-1-(1H-1,2,4-triazol-1-yl)butan-2-ol] | 2 µg/mL (≈ 3.34 µM) | 2 µg/mL (≈ 3.34 µM) | 1 µg/mL (≈ 1.67 µM) | 2 µg/mL (≈ 3.34 µM) | 8 µg/mL (≈ 13.4 µM) | 8 µg/mL (≈ 13.4 µM) | 4 µg/mL (≈ 6.68 µM) | 2 µg/mL (≈ 3.34 µM) | 2 µg/mL (≈ 3.34 µM) | 4 µg/mL (≈ 6.68 µM) | 1 µg/mL (≈ 1.67 µM) | 0.25 µg/mL (≈ 0.418 µM) | 4 µg/mL (≈ 6.68 µM) | 4 µg/mL (≈ 6.68 µM) | 4 µg/mL (≈ 6.68 µM) | 4 µg/mL (≈ 6.68 µM)
3 | C[C@@H](N1CCN(c2nc3ccc(Cl)cc3s2)CC1)[C@](O)(Cn1cncn1)c1ccc(F)cc1F [Example 4, (2R,3R)-3-(4-(6-chlorobenzothiazol-2-yl)piperazin-1-yl)-2-(2,4-difluorophenyl)-1-(1H-1,2,4-triazol-1-yl)butan-2-ol] | 0.5 µg/mL (≈ 0.99 µM) | 0.5 µg/mL (≈ 0.99 µM) | 0.125 µg/mL (≈ 0.248 µM) | 2 µg/mL (≈ 3.96 µM) | > 128 µg/mL | 0.125 µg/mL (≈ 0.248 µM) | 8 µg/mL (≈ 15.8 µM) | 0.5 µg/mL (≈ 0.99 µM) | 0.125 µg/mL (≈ 0.248 µM) | 0.25 µg/mL (≈ 0.495 µM) | 0.125 µg/mL (≈ 0.248 µM) | 0.125 µg/mL (≈ 0.248 µM) | 1 µg/mL (≈ 1.98 µM) | 1 µg/mL (≈ 1.98 µM) | 1 µg/mL (≈ 1.98 µM) | 2 µg/mL (≈ 3.96 µM)
